Columns and labels:
[1] = test system: dogs with chronic heart failure produced by multiple sequential intracoronary microembolizations; test: Ventriculographic measurements (LV volumes, ejection fraction) in dogs with chronic heart failure; assay type: in vivo, dog
From the text: (§1) The following example examines the effects of ranolazine alone and in combination with an angiotensin converting enzyme (ACE) inhibitor and in combination with a beta-blocker on the progression of left ventricular (LV) dysfunction and LV chamber remodeling in dogs with chronic heart failure produced by multiple sequential intracoronary microembolizations.
(§2) Chronic LV dysfunction and failure in dogs was produced by multiple sequential intracoronary embolizations with polystyrene Latex microspheres (77-109 μm in diameter) as previously described by Sabbah et al. (1991) Am. J. Physiol. 260:H1379-H1384. Coronary microembolizations were performed during cardiac catheterization under general anesthesia and sterile conditions. Anesthesia was induced using a combination of intravenous injections of hydromorphone (0.22 mg/kg), diazepam (0.2-0.6 mg/kg) and sodium pentobarbital 50-100 mg to effect. Plane of anesthesia was maintained throughout the study using 1% to 2% isoflurane. Left and right heart catheterization was performed via a femoral arteriotomy and venotomy. After each catheterization, the vessels were repaired using 6-0 silk and the skin closed with 4-0 suture. Microembolizations were discontinued when LV ejection fraction, determined angiographically, was between 30% and 40%. A period of 2 weeks was allowed after the last embolization to ensure that infarctions produced by the last microembolizations have completely healed and heart failure was established. The study protocol was then performed.
(§3) Healthy, conditioned, purpose-bred mongrel dogs weighing between 19 and 25 kg.
(§4) A randomized, blinded, placebo controlled study design was used. A total of 28 dogs underwent multiple sequential intracoronary microembolizations as described above to produce chronic heart failure. Two weeks after the last embolization, dogs were randomized into 4 study groups (treatment arms). Dogs were randomized to 3 months oral therapy with ranolazine alone (375 mg, bid, n=7), ranolazine (375 mg bid) in combination with metoprolol tartrate (25 mg bid, n=7), ranolazine (375 mg bid) in combination with enalapril (10 mg bid, n=7), or placebo (ranolazine vehicle bid, n=7). Hemodynamic, angiographic, echocardiographic, Doppler and neurohumoral measurements were made prior to randomization (2 weeks after the last embolization) and after completion of therapy (3 months after initiating therapy). After completing the final hemodynamic and angiographic study, dogs were euthanized and the hearts removed and tissue prepared and saved for future histological and biochemical evaluations. The study primary and secondary end-points were as follows:
Left ventriculograms were performed during cardiac catheterization after completion of the hemodynamic measurements. Ventriculograms were performed with the dog placed on its right side and were recorded on 35 mm cine at 30 frames per second during a power injection of 20 ml of contrast material (RENO-M-60, Squibb Diagnostics). Correction for image magnification was made using a radiopaque grid placed at the level of the LV. LV end-systolic and end-diastolic volumes were calculated from angiographic silhouettes using the area length method (4). Premature beats and postextrasystolic beats were excluded from any analysis. LV ejection fraction was calculated as the ratio of the difference of end-diastolic and end-systolic volumes to end-diastolic volume times 100. Stroke volume was calculated as the difference between LV end-diastolic and end-systolic volumes. Cardiac output was calculated as the stroke volume times heart rate and cardiac index as the cardiac output divided by body surface area.
(§5) To ensure that all study measures were similar at baseline, comparisons were made between all 4 study groups before any embolizations and at the time of randomization before initiation of therapy. For these comparisons, a one way analysis of variance (ANOVA) was used with a set at 0.05. […]

[2] = test system: dogs with chronic heart failure produced by multiple sequential intracoronary microembolizations; test: Blood neurohumoral and electrolyte measurements in dogs with chronic heart failure; assay type: in vivo, dog; settings: mean±SEM; for T-PNE = transmyocardial norepinephrine: aorta minus coronary sinus
From the text: as §1, §2, §3, §4
Evaluation of plasma concentrations of several neurohormones were made to complement the hemodynamic assessments. Measurements were made at each of the study time periods described for hemodynamic and angiographic assessments. Transmyocardial PNE concentration was estimated by obtaining blood samples from the ascending aorta and coronary sinus during cardiac catheterization. Transmyocardial PNE was calculated as the difference between the two samples. Venous blood samples were obtained in duplicate from conscious dogs prior to cardiac catheterizations for measurement of plasma concentration of norepinephrine, plasma renin activity and plasma atrial natriuretic factor using radioimmunoassay. In addition, blood samples were obtained at the same time intervals for determination of serum electrolytes (Na+, K+, creatinine and BUN).
as §5, with “0.05. If significance was attained, then group wise comparisons were made using the Student-Newman-Kuels test with significance set at p≦0.05.” for “0.05.”

[3] = POST: after 3 months of oral therapy bid, mean±SEM
[4] = PRE: at time of randomization, before therapy, mean±SEM
[5] = at the end of 3 months of treatment
[6] = change from pre-treatment to post-treatment (3 months), mean±SEM
[7] = POST: after 3 months of oral therapy bid
[8] = PRE: at time of randomization, before therapy
[9] = change from pre-treatment to post-treatment (3 months)

## COc1ccccc1OCC(O)CN1CCN(CC(=O)Nc2c(C)cccc2C)CC1 (racemic) [RAN Alone, (±)-N-(2,6-dimethylphenyl)-4-[2-hydroxy-3-(2-methoxyphenoxy)-propyl]-1-piperazineacetamide]
[1]; [3]
  CI = cardiac index: 2.3 ± 0.2 L/min/m^2
  CO = cardiac output: 1.91 ± .18 L/min
  EDV = LV end-diastolic volume: 65 ± 2 mL
  EF = LV ejection fraction: 37 ± 2 %
  ESV = LV end-systolic volume: 41 ± 2 mL
  SV = stroke volume: 24 ± 1 mL
[1]; [4]
  CI = cardiac index: 2.0 ± 0.2 L/min/m^2
  CO = cardiac output: 1.67 ± .11 L/min
  EDV = LV end-diastolic volume: 63 ± 3 mL
  EF = LV ejection fraction: 35 ± 1%
  ESV = LV end-systolic volume: 41 ± 2 mL
  SV = stroke volume: 22 ± 1 mL
[1]; [5]
  LV ejection fraction, intra-group comparison pre- vs post-treatment: increased significantly
  LV end-diastolic volume, intra-group comparison pre- vs post-treatment: remained unchanged
  LV end-systolic volume, intra-group comparison pre- vs post-treatment: remained unchanged
[1]; [6]
  Δ CI (cardiac index): 0.3 ± 0.1 L/min/m^2
  Δ CO (cardiac output): 0.24 ± .10 L/min
  Δ EDV (LV end-diastolic volume): 2 ± 1 mL
  Δ EF (LV ejection fraction): 2 ± 1 %
  Δ ESV (LV end-systolic volume): 0 ± 1 mL
  Δ SV (stroke volume): 2 ± 1 mL
[1]; data of Example 1
  Ability to reduce LV end-diastolic volume (FIG. 1): neither ranolazine, enalapril, nor metoprolol were independently able to reduce LV end-diastolic volume
  Ability to reduce LV end-systolic volume (FIG. 2): neither ranolazine, enalapril, nor metoprolol appear to independently reduce LV end-systolic volume
[2]; [7]
  T-PNE = transmyocardial norepinephrine: −2.9 ± 6.1
  ANF = atrial natriuretic factor: 67 ± 11 pg/mL
  BUN = blood urea nitrogen: 15 ± 2 mg/dL
  Creat = serum creatinine: 1.0 ± 0.1 mg/dL
  K+ (serum electrolyte): 4.7 ± 0.1
  Na+ (serum electrolyte): 147 ± 0.8
  PNE = plasma norepinephrine: 199 ± 43 pg/mL
  PRA = plasma rennin activity: 1.57 ± .55 ng/mL/h
[2]; [8]
  T-PNE = transmyocardial norepinephrine: 8.6 ± 7.0
  ANF = atrial natriuretic factor: 87 ± 15 pg/mL
  BUN = blood urea nitrogen: 18 ± 2 mg/dL
  Creat = serum creatinine: 0.9 ± 0.0 mg/dL
  K+ (serum electrolyte): 4.5 ± 0.1
  Na+ (serum electrolyte): 147 ± 0.5
  PNE = plasma norepinephrine: 217 ± 25 pg/mL
  PRA = plasma rennin activity: 1.69 ± .71 ng/mL/h
[2]; [9]
  Δ ANF (atrial natriuretic factor): 20 ± 14 pg/mL
  Δ BUN (blood urea nitrogen): -2.1 ± 1.4 mg/dL
  Δ Creat (serum creatinine): 0.0 ± 0.1 mg/dL
  Δ K+: 0.1 ± 0.1
  Δ Na+: −0.3 ± 1.0
  Δ PNE (plasma norepinephrine): -19 ± 42 pg/mL
  Δ PRA (plasma rennin activity): 0.13 ± 0.92 ng/mL/h
  Δ T-PNE (transmyocardial norepinephrine): −11 ± 9

— patent publication US20090176772A1, “METHOD OF REVERSING LEFT VENTRICULAR REMODELING” (priority 2004, published 2009)
